Among the data in publication PMC6268061, “Investigation of the Biological Properties of (Hetero)Aromatic Thiosemicarbazones” (Molecules, 2012) are IC50, log k and MIC values, retold here.

For series [1], the system named is HCT-116 human colon cancer cells (p53 wild type). Kind of series: In vitro antiproliferative activity, MTS assay. Format: cell-based. Particulars: HCT-116, 72 h incubation, MTS, read-out: HCT-116 IC50. Here is the method:
The antiproliferative activity of all of the compounds was examined against the human colon cancer (HCT-116) cell line using an MTS assay. The HCT-116 p53 wild type cell line was chosen on the basis of our former experience and some results on the activity of quinoline-based thiosemicarbazones that was published recently. Namely, compounds 4a–l have been tested previously for their wide-ranging anticancer activity. The antiproliferative activity of the compounds evaluated was assessed using Doxorubicin as a reference compound. In general, quinoline-based thiosemicarbazones 4 seem to have a much better anticancer activity than halogenophenyl compounds 3. Thus, the quinoline nucleus can be defined as being crucial for antiproliferative activity. A more detailed analysis of the anticancer activity of quinoline-based thiosemicarbazone is available. […] Nevertheless, some more general conclusions can be drawn from the gathered data. […] The free amino group or substitution pattern with small substituents such as methyl or ethyl are favorable for activity. According to our former results the chelating ability of the compounds may be one of the prerequisites of the antiproliferative activity. In this study we have measured the UV-VIS spectra of the compounds in presence of various concentration of Fe^3+ cations to observe its chelating potency (supplementary material). […] However as 4j give also two points at 330 and 385 nm, iron chelating ability should be regarded only as one of the factor influencing the biological activity.
The human colon cancer cell line HCT116 with the wild type p53 gene (p53^+/+) were obtained from Maria Sklodowska-Curie Memorial Cancer Center in Gliwice, Poland. Briefly, the cells were seeded in 96-well plates (3 × 10^3 cells/well) in cellular proliferation assays 24 h before the addition of the chelators. The assay was performed following a 72 h incubation with varying concentrations of the agents. Each compound was tested in triplicate in a single experiment with each experiment being repeated 3 times. After 72 h incubation with the compounds being investigated, 20 µL of MTS solution was added to each well (100 µL) and incubated for 1 h at 37 °C. The optical densities of the samples were analyzed at 490 nm. Results were expressed as a percentage of the control. The inhibitory concentration (IC50) was defined as the compound concentration necessary to reduce the absorbance to 50% of the untreated control.
Background: Tetrazolium dyes change colour on reduction, which living cells bring about.

In series [2] the test system is Aspergillus fumigatus 231. The experiment in a line: In vitro antifungal susceptibility, broth microdilution. Particulars: read-out: MIC (IC50) AF. The class given is cell-based. (Broth dilution looks for growth in wells or tubes with falling amounts of substance.)
Series [3] can be described thus: Lipophilicity determination using RP-HPLC (capacity factor, log k). Format: physicochemical. The conditions noted are these: C18, MeOH 55%/H2O 45%. In short, it runs like this:
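Isocratic RP-HPLC on a C18 column (5 μm, 4.6 × 250 mm), 55% MeOH/45% water at 0.9 mL/min, 30 °C, UV detection 210 nm. Dead time from KI; capacity factor k = (tR − tD)/tD, with log k taken as the lipophilicity index on log P scale.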

In the next series the test system is Candida krusei ATCC 6258. The experiment in a line: In vitro antifungal susceptibility, broth microdilution. Format: cell-based. The conditions noted are these: Pichia kudriavzevii, read-out: MIC (IC80) CK.
For series [4], the system named is photosynthetic electron transport (PET) in spinach chloroplasts. Kind of series: Inhibition of photosynthetic electron transport (PET) in spinach chloroplasts. The class given is biochemical, Spinacia oleracea L. The conditions noted are these: DCPIP photoreduction. An outline of the steps: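 PET in spinach chloroplasts was followed spectrophotometrically as DCPIP photoreduction in pH 7.2 phosphate buffer with sucrose, MgCl2 and NaCl, at 30 mg/L chlorophyll, under halogen-lamp irradiation at 22 °C. Compounds were added in DMSO. IC50 is the molar concentration halving the rate relative to untreated control.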

The next series has as its system Candida glabrata 20/I. The experiment in a line: In vitro antifungal susceptibility, broth microdilution. Format: cell-based. Particulars: Nakaseomyces glabratus, read-out: MIC (IC80) CG.
For series [5], the system named is Candida albicans ATCC 44859. The series is described as above. The class given is cell-based. Particulars: read-out: MIC (IC80) CA.
Series [6] concerns Trichophyton mentagrophytes 445. The series is described as above. The class given is cell-based. The conditions noted are these: read-out: MIC (IC50) TM.
The next series concerns Candida tropicalis 156. The series is described as above. Format: cell-based. The conditions noted are these: read-out: MIC (IC80) CT.
The mark [7] stands for this setting: Aspergillus fumigatus, 231, 24 h.
The mark [8] stands for this setting: Aspergillus fumigatus, 231, 48 h.
Setting [9] is: Trichophyton mentagrophytes, 445, 72 h.
Setting [10] is: Trichophyton mentagrophytes, 445, 120 h.

In brackets after ≈: the same amount, converted by molar mass. Read-outs that look alike come from different tables or passages of the source. Where only a bound is given, the exact number is not on record here.

With `CN(C)C(=S)N/N=C/c1ccc(Cl)c(Cl)c1` [Compound 3h, (E)-2-(3,4-Dichlorobenzylidene)-N,N-dimethylhydrazinecarbothioamide], the IC50 in [1] is 47 ± 1.3 µM; in series [2] (setting [7]), greater than 500 µM; in series [2] (setting [8]), greater than 500 µM; in series [4], 329 µM; in series [6] (setting [9]), 31.2 µM; in series [6] (setting [10]), 62.5 µM. The same compound displayed a log k in series [3] of 0.7555. Besides, the MIC in the series with Candida krusei ATCC 6258 (ATCC6258, 24 h) was determined as 500 µM (≈ 138 µg/mL); with Candida krusei ATCC 6258 (ATCC6258, 48 h) it was 500 µM (≈ 138 µg/mL); in the series with Candida glabrata 20/I (24 h) it was 500 µM (≈ 138 µg/mL); with Candida glabrata 20/I (48 h), 500 µM (≈ 138 µg/mL); in [5] (ATCC44859, 24 h) it was 15.6 µM (≈ 4.31 µg/mL); in series [5] (ATCC44859, 48 h), 31.2 µM (≈ 8.63 µg/mL). Moreover, the MIC in the series on Candida tropicalis 156 (Candida tropicalis, 156, 24 h) is 500 µM (≈ 138 µg/mL); in the series on Candida tropicalis 156 (Candida tropicalis, 156, 48 h), 500 µM (≈ 138 µg/mL).
Consider `NC(=S)N/N=C/c1ccc(Br)cc1` [Compound 3k, (E)-2-(4-Bromobenzylidene)hydrazinecarbothioamide], for which the IC50 is greater than 60 µM in series [1]; greater than 500 µM in series [2] (setting [7]); greater than 500 µM in series [2] (setting [8]); 586 µM in [4]; greater than 500 µM in series [6] (setting [9]); greater than 500 µM in series [6] (setting [10]). The compound further yielded a log k in [3] of 0.6580. Further, the MIC was greater than 500 µM with Candida krusei ATCC 6258 (ATCC6258, 24 h); greater than 500 µM in the series on Candida krusei ATCC 6258 (ATCC6258, 48 h); greater than 500 µM in the series on Candida glabrata 20/I (24 h); greater than 500 µM in the series with Candida glabrata 20/I (48 h); 500 µM (≈ 129 µg/mL) in [5] (ATCC44859, 24 h); 500 µM (≈ 129 µg/mL) in [5] (ATCC44859, 48 h). Moreover, the MIC is greater than 500 µM with Candida tropicalis 156 (Candida tropicalis, 156, 24 h) and greater than 500 µM with Candida tropicalis 156 (Candida tropicalis, 156, 48 h).
In the case of `CN(C)C(=S)N/N=C/c1ccc(Br)cc1` [Compound 3m, (E)-2-(4-bromobenzylidene)-N,N-dimethylhydrazinecarbothioamide], the IC50 in series [1] is 47.5 ± 2.4 µM; in series [2] (setting [7]), greater than 500 µM; in series [2] (setting [8]), greater than 500 µM; in series [4], 595 µM; in [6] (setting [9]), 62.5 µM; in [6] (setting [10]), 62.5 µM. In addition, in series [3], the log k worked out at 0.6784. For the same compound, the MIC with Candida krusei ATCC 6258 (ATCC6258, 24 h) is greater than 500 µM; in the series on Candida krusei ATCC 6258 (ATCC6258, 48 h), greater than 500 µM; in the series on Candida glabrata 20/I (24 h), greater than 500 µM; in the series with Candida glabrata 20/I (48 h), greater than 500 µM; in [5] (ATCC44859, 24 h), 62.5 µM (≈ 17.9 µg/mL); in series [5] (ATCC44859, 48 h), 250 µM (≈ 71.5 µg/mL). For the same compound, the MIC was greater than 500 µM in the series on Candida tropicalis 156 (Candida tropicalis, 156, 24 h) and greater than 500 µM in the series on Candida tropicalis 156 (Candida tropicalis, 156, 48 h).

In general, IC50 refers to the concentration at which inhibition is half-maximal. As usually defined, the MIC is the smallest concentration in the dilution series that meets the test's criterion for growth inhibition.
